From patent publication US10722501B2 (BAYER AKTIENGESELLSCHAFT, priority 2016, dated 2020)

What follows are molecules tested against T1, recombinant full-length human prolyl endopeptidase (PREP) (Homo sapiens, UniProt P48147) (assay: Biochemical human prolyl endopeptidase (PREP) assay with fluorescently labelled substrate). Conditions: substrate Z-Gly-Pro-AMC 50 μM, 32° C., 60 min; some as mean values from multiple independent determinations.
T1 construct: To recombinant full-length human prolyl endopeptidase (PREP, R&D-Systems, 4308-SE); purchased R&D-Systems 4308-SE
T1 sequence (P48147 1-710): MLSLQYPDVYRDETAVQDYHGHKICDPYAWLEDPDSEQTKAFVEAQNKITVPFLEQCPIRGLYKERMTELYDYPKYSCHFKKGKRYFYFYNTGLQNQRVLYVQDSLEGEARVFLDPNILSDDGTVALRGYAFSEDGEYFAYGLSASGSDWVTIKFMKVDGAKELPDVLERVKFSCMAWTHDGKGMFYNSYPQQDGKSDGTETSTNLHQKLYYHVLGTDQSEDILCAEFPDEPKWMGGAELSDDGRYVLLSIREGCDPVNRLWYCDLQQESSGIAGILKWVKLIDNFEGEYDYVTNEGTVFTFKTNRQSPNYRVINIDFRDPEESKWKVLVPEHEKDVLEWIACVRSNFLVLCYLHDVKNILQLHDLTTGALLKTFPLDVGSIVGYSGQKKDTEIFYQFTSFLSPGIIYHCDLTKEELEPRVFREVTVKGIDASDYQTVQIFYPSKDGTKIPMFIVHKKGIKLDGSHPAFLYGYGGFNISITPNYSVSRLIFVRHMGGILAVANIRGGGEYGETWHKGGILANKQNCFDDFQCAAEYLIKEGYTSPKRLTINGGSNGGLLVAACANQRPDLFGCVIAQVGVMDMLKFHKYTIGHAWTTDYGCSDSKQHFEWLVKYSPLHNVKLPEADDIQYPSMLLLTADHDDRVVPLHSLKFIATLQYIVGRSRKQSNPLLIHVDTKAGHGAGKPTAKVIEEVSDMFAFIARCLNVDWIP
How it was run: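 0.4 nM (final, example) recombinant PREP in pH 7.5 Tris buffer with EDTA, GSH, BSA and Brij-35; compounds at 1 nM to 30 μM. Reaction started with 50 μM Z-Gly-Pro-AMC and followed by fluorescence (ex 360/em 465 nm) at 32° C for 60 min. IC50 interpolated from percent activity based on initial slopes.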

IC50 [nM]	SMILES
4.3	Cc1ccc(Cn2nc3n(c2=O)C(C(=O)N2CC(O)C2)CCC3)cc1 (single isomer, unassigned) [Example 121, (5RS)-5-[(3-Hydroxyazetidin-1-yl)carbonyl]-2-(4-methylbenzyl)-5,6,7,8-tetrahydro[1,2,4]triazolo[4,3-a]pyridin-3(2H)-one]
98.5	O=C(C1C(C(F)(F)F)CCc2nn(Cc3ccc(C(F)(F)F)nc3)c(=O)n21)N1CC[C@H](F)C1 (single isomer, unassigned) [Example 286]
24	Cc1nc(-c2ccc(Cn3nc4n(c3=O)C(C(=O)N3CCCC3)CCC4)cc2)no1 (racemic) [Example 10, (5RS)-2-[4-(5-Methyl-1,2,4-oxadiazol-3-yl)benzyl]-5-(pyrrolidin-1-ylcarbonyl)-5,6,7,8-tetrahydro[1,2,4]triazolo[4,3-a]pyridin-3(2H)-one]
0.22	O=C([C@@H]1CCCc2nn(CC3(c4ccc(F)cc4F)CC3)c(=O)n21)N1CCCC1 [Example 530, (5S)-2-{[1-(2,4-Difluorophenyl)cyclopropyl]methyl}-5-(pyrrolidin-1-ylcarbonyl)-5,6,7,8-tetrahydro[1,2,4]triazolo[4,3-a]pyridin-3(2H)-one]
43.5	Cc1ccc(Cn2nc3n(c2=O)[C@H](C(=O)N2CCC[C@@H]2C)CCC3)cc1 [Example 127, 2-(4-Methylbenzyl)-(5S)-{[(2S)-2-methylpyrrolidin-1-yl]carbonyl}-5,6,7,8-tetrahydro[1,2,4]triazolo[4,3-a]pyridin-3(2H)-one]
24	CC(C)(C)OC(=O)c1ccc(Cn2nc3n(c2=O)C(C(=O)N2CCCC2)CCC3)cc1 (racemic) [Example 28, tert-Butyl 4-{[(5RS)-3-oxo-5-(pyrrolidin-1-ylcarbonyl)-5,6,7,8-tetrahydro[1,2,4]triazolo[4,3-a]pyridin-2(3H)-yl]methyl}benzoate]
10.2	Cc1ccc(Cn2nc3n(c2=O)[C@H](C(=O)N2CC[C@@H](O)C2)CCC3)cc1 [Example 122, (5S)-5-{[(3R)-3-Hydroxypyrrolidin-1-yl]carbonyl}-2-(4-methylbenzyl)-5,6,7,8-tetrahydro[1,2,4]triazolo[4,3-a]pyridin-3(2H)-one]
0.76	Cc1ccc(Cn2nc3n(c2=O)C(C(=O)N2CCCC2)CCC3)cc1 (racemic) [Example 25, (5RS)-2-(4-Methylbenzyl)-5-(pyrrolidin-1-ylcarbonyl)-5,6,7,8-tetrahydro[1,2,4]triazolo[4,3-a]pyridin-3(2H)-one]
5.4	Cn1nc(Cn2nc3n(c2=O)[C@H](C(=O)N2CC(F)(F)C2)CCC3)c2cccnc21 [Example 415, (5S)-5-[(3,3-Difluoroazetidin-1-yl)carbonyl]-2-[(1-methyl-1H-pyrazolo[3,4-b]pyridin-3-yl)methyl]-5,6,7,8-tetrahydro[1,2,4]triazolo[4,3-a]pyridin-3(2H)-one]
94	O=C([C@@H]1CCCc2nn(Cc3nnc(C(F)(F)F)o3)c(=O)n21)N1CC(F)C1 [Example 542, (5S)-5-[(3-Fluoroazetidin-1-yl)carbonyl]-2-{[5-(trifluoromethyl)-1,3,4-oxadiazol-2-yl]methyl}-5,6,7,8-tetrahydro[1,2,4]triazolo[4,3-a]pyridin-3(2H)-one]
1.2	O=C([C@@H]1CCCc2nn(Cc3ccc(C(F)F)nc3)c(=O)n21)N1CC[C@H](F)C1 [Example 206, (5S)-2-{[6-(Difluoromethyl)pyridin-3-yl]methyl}-5-{[(3S)-3-fluoropyrrolidin-1-yl]carbonyl}-5,6,7,8-tetrahydro[1,2,4]triazolo[4,3-a]pyridin-3(2H)-one]
7.1	O=C([C@@H]1CCCc2nn(Cc3cncc(Cl)c3)c(=O)n21)N1CC(F)(F)C1 [Example 437, (5S)-2-[(5-Chloropyridin-3-yl)methyl]-5-[(3,3-difluoroazetidin-1-yl)carbonyl]-5,6,7,8-tetrahydro[1,2,4]triazolo[4,3-a]pyridin-3(2H)-one]
5	COc1cccc(Cn2nc3n(c2=O)C(C(=O)N2CCC(F)(F)C2)CCC3)c1 (racemic) [Example 48, (5RS)-5-[(3,3-Difluoropyrrolidin-1-yl)carbonyl]-2-(3-methoxybenzyl)-5,6,7,8-tetrahydro[1,2,4]triazolo[4,3-a]pyridin-3(2H)-one]
2.33	O=C([C@@H]1CCCc2nn(Cc3ncc(C(F)(F)F)cc3Cl)c(=O)n21)N1CCC(F)(F)C1 [Example 404, (5S)-2-{[3-Chloro-5-(trifluoromethyl)pyridin-2-yl]methyl}-5-[(3,3-difluoropyrrolidin-1-yl)carbonyl]-5,6,7,8-tetrahydro[1,2,4]triazolo[4,3-a]pyridin-3(2H)-one]
0.625	O=C([C@@H]1CCCc2nn(Cc3ccc(C(F)(F)F)c(Cl)c3)c(=O)n21)N1CC[C@H](F)C1 [Example 461, (5S)-2-[3-Chloro-4-(trifluoromethyl)benzyl]-5-{[(3S)-3-fluoropyrrolidin-1-yl]carbonyl}-5,6,7,8-tetrahydro[1,2,4]triazolo[4,3-a]pyridin-3(2H)-one]
141	Cc1ccc(Cn2nc3n(c2=O)[C@H](C(=O)N2CCC[C@H]2C)CCC3)cc1 [Example 132, (5S)-2-(4-Methylbenzyl)-{[(2R)-2-methylpyrrolidin-1-yl]carbonyl}-5,6,7,8-tetrahydro[1,2,4]triazolo[4,3-a]pyridin-3(2H)-one]
5.5	COc1ccc(Cn2nc3n(c2=O)[C@H](C(=O)N2CCC(F)(F)C2)CCC3)nc1 [Example 381, (5S)-5-[(3,3-Difluoropyrrolidin-1-yl)carbonyl]-2-[(5-methoxypyridin-2-yl)methyl]-5,6,7,8-tetrahydro[1,2,4]triazolo[4,3-a]pyridin-3(2H)-one]
0.93	Cc1ccc(Cn2nc3n(c2=O)[C@H](C(=O)N2CC(CF)C2)CCC3)cc1 [Example 146, (5S)-5-{[3-(Fluoromethyl)azetidin-1-yl]carbonyl}-2-(4-methylbenzyl)-5,6,7,8-tetrahydro[1,2,4]triazolo[4,3-a]pyridin-3(2H)-one]
6	O=C(C1CCCc2nn(Cc3ccc(Cl)cn3)c(=O)n21)N1CCC(F)(F)C1 (racemic) [Example 78, (5RS)-2-[(5-Chloropyridin-2-yl)methyl]-5-[(3,3-difluoropyrrolidin-1-yl)carbonyl]-5,6,7,8-tetrahydro[1,2,4]triazolo[4,3-a]pyridin-3(2H)-one]
130	Cc1ccc(Cn2nc3n(c2=O)C(C(=O)N2CCCC2C)CCC3)cc1 (racemic) [Example 162, (5RS)-2-(4-Methylbenzyl)-5-[2(RS)-(2-methylpyrrolidin-1-yl)carbonyl]-5,6,7,8-tetrahydro[1,2,4]triazolo[4,3-a]pyridin-3(2H)-one]
37	O=C(C1C(C(F)(F)F)CCc2nn(Cc3ncc(Cl)cc3F)c(=O)n21)N1C[C@@H](F)[C@@H](F)C1 (single isomer, unassigned) [Example 292]
12.7	O=C([C@@H]1CCCc2nn(Cc3cccc(C(F)(F)F)c3)c(=O)n21)N1CC[C@H](O)C1 [Example 99, (5S)-5-{[(3S)-3-Hydroxypyrrolidin-1-yl]carbonyl}-2-[3-(trifluoromethyl)benzyl]-5,6,7,8-tetrahydro[1,2,4]triazolo[4,3-a]pyridin-3(2H)-one]
